In patent US20230407243A1, “GENETIC PLATFORM TO INVESTIGATE THE FUNCTIONS OF BACTERIAL DRUG EFFLUX PUMPS” (priority 2022, published 2023):

Assays:
Assay type in all cases: cell-based, Escherichia coli
[1] = test system: EKO-35-Pore; assay: MIC susceptibility profiling, porinated strain
Outline: (§1)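 MIC values come from background-corrected OD600 readings (pre-incubation OD subtracted) after 18 h at 37 °C and 900 rpm in MHB II. Compounds were tested in duplicate as 2-fold dilutions. The inoculum came from 18 h LB cultures adjusted to OD600 ~1.0 and diluted 1/2000, and the pore-bearing strains were vancomycin-checked beforehand.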

[2] = test system: EKO-35 araC::mdtBC; assay: MIC susceptibility profiling, efflux platform
Outline: (§2)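 OD600 read-out, background-corrected, after 18 h at 37 °C with shaking. Compounds were tested in duplicate as 2-fold series in MHB II, with DMSO as solvent control. Inoculum was a 1/2000 dilution of an OD600 ~1.0 PBS suspension.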

[3] = test system: EKO-35 araC::acrEF; assay: MIC susceptibility profiling, efflux platform
Outline: as §2

[4] = test system: EKO-35 araC::acrBD408A; assay: MIC susceptibility profiling, efflux platform
Outline: as §2

[5] = test system: wild-type E. coli K-12 str. BW25113; assay: microbe, parasite or virus in culture; conditions: technical duplicate
Outline: as §2

[6] = test system: E. coli ΔtolC; assay: microbe, parasite or virus in culture; conditions: technical duplicate
Outline: as §2

[7] = test system: E. coli EKO-35; assay: microbe, parasite or virus in culture
Outline: as §2

[8] = test system: ΔtolC-Pore; assay: microbe, parasite or virus in culture; conditions: technical duplicate
Outline: as §1

[9] = test system: wild-type (WT) K-12-Pore; assay: microbe, parasite or virus in culture; conditions: technical duplicate
Outline: as §1

[10] = test system: EKO-35 araC::mexCD Pore; assay: MIC susceptibility profiling, porinated efflux platform
Outline: as §1

[11] = test system: EKO-35 araC::emrAB Pore; assay: as above
Outline: as §1

[12] = test system: EKO-35 araC::mdtBC Pore; assay: as above
Outline: as §1

[13] = test system: EKO-35 araC::macAB Pore; assay: as above
Outline: as §1

[14] = test system: EKO-35 araC::acrBD408A Pore; assay: as above
Outline: as §1

[15] = test system: EKO-35 araC::mdtEF Pore; assay: as above
Outline: as §1

[16] = test system: EKO-35 araC::acrEF Pore; assay: as above
Outline: as §1

[17] = test system: EKO-35 araC::emrKY Pore; assay: as above
Outline: as §1

[18] = test system: EKO-35 araC::acrD Pore; assay: as above
Outline: as §1

[19] = test system: EKO-35 araC::acrB Pore; assay: as above
Outline: as §1

[20] = Table 14A, porinated, technical duplicate
[21] = Table 13B, non-porinated, technical duplicate
[22] = Table 13A, non-porinated, technical duplicate

Compound: N#Cc1ccc(-c2c(NC(=O)C(Cl)Cl)oc(-c3cccs3)c2C#N)cc1 [compound 2]
- Fold changes of MICs ([1]; EKO-35-Pore compared to EKO-35-Pore (reference)): 1 fold
- Minimum inhibitory concentration (MIC), Pore EKO-35 ([1]; Table 10, with pore, technical duplicate): 320 µg/mL
- Minimum inhibitory concentration, EKO-35-Pore [1, 20]: 320 µg/mL
- Fold change of MICs ([2]; EKO-35 araC::mdtBC compared to EKO-35): 1 fold
- Minimum Inhibitory Concentration, EKO-35 araC::mdtBC [2, 21]: 320 µg/mL
- Fold change of MICs ([3]; EKO-35 araC::acrEF compared to EKO-35): 1 fold
- Minimum Inhibitory Concentration, EKO-35 araC::acrEF [3, 22]: 320 µg/mL
- Fold change of MICs ([4]; EKO-35 araC::acrBD408A compared to EKO-35): 1 fold
- Minimum Inhibitory Concentration, EKO-35 araC::acrBD408A [4, 21]: 320 µg/mL
- Minimum inhibitory concentration (MIC), K-12 ([5]; Table 10, without pore): 320 µg/mL
- Minimum Inhibitory Concentration, K-12 ([5]; Table 13A, non-porinated): 320 µg/mL
- Minimum inhibitory concentration (MIC), ΔtolC ([6]; Table 10, without pore): 1.25 µg/mL
- Minimum Inhibitory Concentration, ΔtolC ([6]; Table 13A, non-porinated): 1.25 µg/mL
- Fold change of MICs ([7]; EKO-35 compared to EKO-35 (reference)): 1 fold
- Minimum inhibitory concentration (MIC), EKO-35 ([7]; Table 10, without pore, technical duplicate): 320 µg/mL
- Minimum Inhibitory Concentration, EKO-35 [7, 22]: 320 µg/mL
- Minimum inhibitory concentration (MIC), Pore ΔtolC ([8]; Table 10, with pore): 1.25 µg/mL
- Minimum inhibitory concentration, ΔtolC-Pore ([8]; Table 14A, porinated): 1.25 µg/mL
- Minimum inhibitory concentration (MIC), Pore K-12 ([9]; Table 10, with pore): 320 µg/mL
- Minimum inhibitory concentration, K-12 (WT)-Pore ([9]; Table 14A, porinated): 320 µg/mL
- Fold changes of MICs ([10]; EKO-35 araC::mexCD Pore compared to EKO-35-Pore): 1 fold
- Minimum inhibitory concentration ([10]; EKO-35 araC::mexCD Pore, technical duplicate): 320 µg/mL
- Fold changes of MICs ([11]; EKO-35 araC::emrAB Pore compared to EKO-35-Pore): 1 fold
- Minimum inhibitory concentration ([11]; EKO-35 araC::emrAB Pore, technical duplicate): 320 µg/mL
- Fold changes of MICs ([12]; EKO-35 araC::mdtBC Pore compared to EKO-35-Pore): 1 fold
- Minimum inhibitory concentration ([12]; EKO-35 araC::mdtBC Pore, technical duplicate): 320 µg/mL
- Fold changes of MICs ([13]; EKO-35 araC::macAB Pore compared to EKO-35-Pore): 1 fold
- Minimum inhibitory concentration ([13]; EKO-35 araC::macAB Pore, technical duplicate): 320 µg/mL
- Fold changes of MICs ([14]; EKO-35 araC::acrBD408A Pore compared to EKO-35-Pore): 1 fold
- Minimum inhibitory concentration ([14]; EKO-35 araC::acrBD408A Pore, technical duplicate): 320 µg/mL
- Fold changes of MICs ([15]; EKO-35 araC::mdtEF Pore compared to EKO-35-Pore): 1 fold
- Minimum inhibitory concentration, EKO-35 araC::mdtEF Pore [15, 20]: 320 µg/mL
- Fold changes of MICs ([16]; EKO-35 araC::acrEF Pore compared to EKO-35-Pore): 1 fold
- Minimum inhibitory concentration, EKO-35 araC::acrEF Pore [16, 20]: 320 µg/mL
- Fold changes of MICs ([17]; EKO-35 araC::emrKY Pore compared to EKO-35-Pore): 1 fold
- Minimum inhibitory concentration ([17]; EKO-35 araC::emrKY Pore, technical duplicate): 320 µg/mL
- Fold changes of MICs ([18]; EKO-35 araC::acrD Pore compared to EKO-35-Pore): 1 fold
- Minimum inhibitory concentration, EKO-35 araC::acrD Pore [18, 20]: 320 µg/mL
- Fold changes of MICs ([19]; EKO-35 araC::acr-B Pore compared to EKO-35-Pore): 1 fold
- Minimum inhibitory concentration, EKO-35 araC::acrB Pore [19, 20]: 320 µg/mL
